The values that follow come from patent US20130184338A1, “PHENYLPROPYL CARBAMATE DERIVATIVES FOR USE IN PREVENTING OR TREATING MULTIPLE SCLEROSIS” (Bio-Pharm Solutions Co., Ltd., priority 2011, published 2013).

In assay [1] the test system is male mice (ICR). Briefly: Muscle relaxation: endurance time on rotarod rotating at accelerated speed. In kind it is in vivo. The following applies: Mus musculus, ip; intraperitoneal, at time of maximum effect; 50% of activity vs vehicle only; read-out: MR test ED50, I = Acc. Rotarod. The method, then: (§1) For testing, male mice (ICR) were purchased from ORIENT BIO INC. (Korea), divided into several groups with 6 mice in each group, and were adapted for 4-5 days. The mice having the weight ranging from 19 g to 26 g were employed for the test. The pharmacological effect of the test compounds on muscle relaxation was evaluated by Rotarod test, grip strength test, and muscular force (wire hang) test. All mice were adapted to the test environment at one hour before starting the tests. The pharmacological effects of all the test compounds were evaluated by administration through peritoneal cavity of the mice (10 ul/g, bw).
At 24 hours before testing, the mice to be tested were preliminarily trained for 5 minutes on a rod rotating at the rate of 6 revolutions per a minute. The pharmacological effect on muscle relaxation of the test compounds were evaluated by observing the mice on a rod for 5 minutes, where the rod was accelerated from 4 to 40 revolutions per a minute during the test time. The endurance time that each mouse endures on the acceleratedly rotated rod without falling off from the rod was recorded. As test time for evaluation, a maximum of 5 minutes was applied. […] This experimentation was conducted according to the method described in the reference, ‘Monville et al. (2006) Comparison of incremental and accelerating protocol of the rotarod test for the assessment of motor deficits in the 6-OHDA model. J. Neurosci. Meth. 158: 219-223’.
(§2) The results of muscle relaxation activity of the phenyl carbamate compounds measured in above Experimental Examples 11.2 to 11.5 are shown in following Table 5.
For orientation: The rotarod test checks motor coordination on a turning rod.

The test system of assay [2] is male mice (ICR). Briefly: Muscle relaxation: grip strength. In kind it is in vivo. Conditions: intraperitoneal; for ED50: Mus musculus, ip, at time of maximum effect, 50% of activity vs vehicle only, read-out: MR test ED50, III = Grip strength. The method, then: as §1
A grip strength test using the test animals' forelimbs was performed using an instrument equipped with triangle ring and designed so as to easily grip with the forelimbs of experimental animals, manufactured from Ugo Basile Inc. (Ugo Basile, Model47106, Italy). The test was conducted before and after administration of the compounds to evaluate the effects thereof. […] The mouse was made to grip the rod with its forelimbs, and its tail was pulled, where the force at which the mouse detached from the rod was recorded. The instrument indicated the force in grams. All of the mice were given […] for test, and the 3 highest values among the test opportunities were selected and the mean value was used as the test result. This experimentation was conducted according to the method described in the reference, ‘Nevins et al. (1993) Quantitative grip strength assessment as a means of evaluating muscle relaxation in mice. Psychopharmacol. 110: 92-96’.
as §2

The test system of assay [3] is male ICR mice. The assay is described as follows: MES (Maximal Electroshock Seizure) test in mice. Conditions: Mus musculus, po, read-out: MES test (po) Protection %. (In general: Protection in the maximal electroshock model is a classic sign of anticonvulsant action.)
The subject of assay [4] is male mice (ICR). The assay is described as follows: Muscle relaxation: wire hang. It is filed as in vivo. The following applies: intraperitoneal; for ED50: Mus musculus, at time of maximum effect, 50% of activity vs vehicle only, read-out: MR test ED50, IV = Wire hang; for IV = Wire hang, effect (%) compared to control treated with vehicle only: concentration administered 100 mg/kg. The method, then:
as §1
This experimentation was conducted using a metal wire of 30 cm in length, which was suspended between two pillars at a height of about 40 cm from the bottom covered with a soft pad. […] Each mouse was made to grip the wire using two forelimbs, and the elapse time before the mouse fell off from the wire to the pad on the bottom was recorded in seconds. Each mouse was given 5 opportunities for this test at an interval of 2 minutes period. The highest 3 records among the test opportunities were selected and the mean value was used as the test result. This experimentation was conducted according to the method described in the reference, ‘Jacqueline N. Crawley (1999) Behavioral phenotyping of transgenic and knockout mice: experimental design and evaluation of general health, sensory functions, motor abilities, and specific behavioral tests. Brain Res. 835: 18-26’.
as §2

Marks after values point to notes of the source that are not given here.

What is called ED50 is the dose that gives a 50% effect, or the effect in half of the subjects.

Consider `CCC(OC(N)=O)C(O)c1ccccc1Cl` (racemic) [Compound 8, 1-(2-chlorophenyl)-1-hydroxybutyl-2-carbamate], for which the ED50 was 50.6 mg/kg in assay [1] and 69.5 mg/kg in assay [2]. The like results for `CC(C)C(OC(N)=O)C(O)c1ccccc1Cl` (racemic) [Compound 11, 1-(2-chlorophenyl)-1-hydroxy-3-methyl-butyl-2-carbamate] were, in that order, 102 mg/kg and 126 mg/kg. For `CCCNC(=O)OC(C)C(O)c1ccccc1Cl` (racemic) [Compound 30, 1-(2-chlorophenyl)-1-hydroxypropyl-2-N-propylcarbamate], in assay [3], the responders at 200 mg/kg was 25%. The ED50 stood at 65.4 mg/kg in assay [2] and 31.7 mg/kg in assay [4]. The like results for `CC(C)NC(=O)OC(C)C(O)c1ccccc1Cl` (racemic) [Compound 31, 1-(2-chlorophenyl)-1-hydroxypropyl-2-N-isopropylcarbamate] were, in that order, 25%, 50.4 mg/kg and 52.1 mg/kg. For `CC(OC(=O)NC1CC1)C(O)c1ccccc1Cl` (racemic) [Compound 32, 1-(2-chlorophenyl)-1-hydroxypropyl-2-N-cyclopropylcarbamate] the same measures were 100%, 45.2 mg/kg and 36.6 mg/kg. As to `CC(OC(=O)NC1CCCCC1)C(O)c1ccccc1Cl` (racemic) [Compound 33, 1-(2-chlorophenyl)-1-hydroxypropyl-2-N-cyclohexylcarbamate], the ED50 in assay [4] turned out to be 74.6 mg/kg. On to `CC[C@H](OC(N)=O)[C@@H](O)c1ccccc1Cl` [Compound 6, 1-(2-chlorophenyl)-(S)-1-hydroxybutyl-(S)-2-carbamate], for which the ED50 in assay [2] was 70.7 mg/kg. On the same count and under the same terms, for `CC[C@@H](OC(N)=O)[C@H](O)c1ccccc1Cl` [Compound 7, 1-(2-chlorophenyl)-(R)-1-hydroxybtyl-(R)-2-carbamate] the value was 248 mg/kg. On the same count and under the same terms, for `CC(C)[C@H](OC(N)=O)[C@@H](O)c1ccccc1Cl` [Compound 9, 1-(2-chlorophenyl)-(S)-1-hydroxy-3-methyl-butyl-(S)-2-carbamate] the value was 104 mg/kg. `C[C@H](OC(=O)NC1CCCCC1)[C@@H](O)c1ccccc1Cl` [Compound 19, 1-(2-chlorophenyl)-(S)-1-hydroxypropyl-(R)-2-N-cyclohexyl carbamate]: the ED50 in assay [1] turned out to be 95.3 mg/kg; in assay [2] it was 110 mg/kg; in assay [4], 28.5 mg/kg. In the case of `CCCNC(=O)O[C@H](C)[C@H](O)c1ccccc1Cl` [Compound 23, 1-(2-chlorophenyl)-(R)-1-hydroxypropyl-(R)-2-N-propylcarbamate], the responders at 200 mg/kg in assay [3] was 25%. For the same compound, the median effective dose (ED50) in assay [2] worked out at 73.8 mg/kg; in assay [4], 46 mg/kg. `C[C@@H](OC(=O)NC1CCCCC1)[C@H](O)c1ccccc1Cl` [Compound 26, 1-(2-chlorophenyl)-(R)-1-hydroxypropyl-(R)-2-N-cyclohexyl carbamate]: the ED50 in assay [4] is 63.8 mg/kg.

In the case of `C[C@@H](OC(N)=O)[C@H](O)c1ccc(Cl)cc1Cl` [Compound 45, 1-(2,4-dichlorophenyl)-(R)-1-hydroxypropyl-(R)-2-carbamate], the responders at 200 mg/kg in assay [3] was 0%. Regarding `C[C@H](OC(N)=O)[C@@H](O)c1ccccc1F` [Compound 63, 1-(2-fluorophenyl)-(S)-1-hydroxypropyl-(S)-2-carbamate], the ED50 in assay [2] was found to be 118 mg/kg. Moreover, the “IV = Wire hang, effect (%) compared to control treated with vehicle only” value in assay [4] was 100^a (84.2%). For the compound `C[C@@H](OC(N)=O)[C@H](O)c1ccccc1F` [Compound 64, 1-(2-fluorophenyl)-(R)-1-hydroxypropyl-(R)-2-carbamate], the “III = Grip strength, effect (%) compared to control treated with vehicle only” value in assay [2] (concentration administered 120 mg/kg) was 120^a (35.4%). Moreover, in assay [4], the “IV = Wire hang, effect (%) compared to control treated with vehicle only” value is 100^a (30.8%).
